The values below come from ChEMBL document CHEMBL1126693, “Long-chain-substituted uric acid and 5,6-diaminouracil derivatives as novel agents against free radical processes: synthesis and in vitro activity” (J Med Chem, 1993).

Active and inactive are the calls of the source. The rule behind the calls is not given here.

A short description of data set [1]: Inhibition time for 20 uM during peroxidation of liposomal suspension of dilinoleoylphosphatidylcholine (DPLC) indicated by DMVN at 40 degree centigrade; inactive.
Data set [2] is filed under the species Bos taurus. Kind of data set: Tested for antioxidant activity using bovine heart mitochondria and iron(II) / dihydroxy fumaric acid (DHF) at 100 uM. The data set is classed as functional.
Data set [3] in a line: Reducing activity to scavenge 10 uM 1, 1-diphenylpicrylhydrazyl (DPPH); inactive. The data set is classed as functional. For orientation: The DPPH test is a chemical assay of radical scavenging.
A short description of data set [4]: Inhibition time for 20 uM during peroxidation of methyl linoleate / DMVN in TBA /methanol medium at 40 degree centigrade; inactive.
Data set [5] is described as follows: Partition coefficient (logP). The note with it: octanol/water. The data set is classed as physicochemical.
Data set [6] is described as follows: Inhibition time for 20 uM during peroxidation of liposomal suspension of dilinoleoylphosphatidylcholine (DPLC) indicated by DMVN at 40 degree Centigrade.
Data set [7] is filed under the species Bos taurus. In words: Antioxidant activity in bovine heart mitochondria using iron(II) / dihydroxy fumaric acid (DHF). The data set is classed as functional.
The nature of data set [8]: Reducing activity to scavenge 10 uM 1, 1-diphenylpicrylhydrazyl (DPPH). The class given is functional.
A short description of data set [9]: Inhibition time for 20 uM during peroxidation of methyl linoleate / DMVN in TBA /methanol medium at 40 degree Centigrade.
Data set [10] in a line: Inhibition against peroxidation of liposomal suspension of dilinoleoylphosphatidylcholine (DPLC) indicated by DMVN at 40 degree Centigrade.
The nature of data set [11]: Percent inhibition at 100 uM against peroxidation of methyl linoleate / DMVN in TBA /methanol medium at 40 degree Centigrade.
The species entered for data set [12] is Bos taurus. In words: Tested for antioxidant activity using bovine heart mitochondria and iron(II) / dihydroxy fumaric acid (DHF). The data set is classed as functional.
Data set [13] is described as follows: Percent inhibition at 100 uM against peroxidation of liposomal suspension of dilinoleoylphosphatidylcholine (DPLC) indicated by DMVN at 40 degree Centigrade.

For orientation: inhibition means the share of the control response that was lost under treatment. Take `CCCCCCCCCCCCNc1cc(O)nc(O)n1`: the T inh entry in data set [1] and in data set [4] was “inactive” each time. This compound also returned an inhibition in the data set listed under Bos taurus [2] of 2%. Also, the RC10 entry in data set [3] was “inactive”.

The logP is a log measure of how a compound divides between an organic and an aqueous phase. In general, IC50 refers to the concentration that gives 50% inhibition. `CCCCCCCCn1c(N)c(N)c(=O)[nH]c1=O`: the logP in [5] was determined as 2.05. Moreover, the T inh was found to be 3350 s in data set [6] and 114 s in data set [9]. This compound came in with an IC50 in the data set listed under Bos taurus [7] of 620 nM. The compound further gave an RC10 in data set [8] of 6.5 µM.

Consider `CCCCCCCCCCCCn1c(=O)[nH]c2[nH]c(O)nc2c1=O`, for which the values for the IC50 (in the data set filed under Bos taurus [7]; in data set [10]) were 1250 nM and 10000 nM, respectively. This compound returned an RC10 in data set [8] of 5.2 µM. Moreover, in data set [11], the inhibition was 25%.

The compound `CCCCCCn1c(N)c(N)c(=O)[nH]c1=O` came in with an IC50 in the data set listed under Bos taurus [12] of 3500 nM. Besides, the logP in data set [5] worked out at 1.01. Moreover, the T inh in data set [6] was found to be 2010 s; in [9], 105 s. The compound also gave an RC10 in data set [8] of 6.5 µM.

With `CCCCCCCCCCCCNc1nc(O)nc(O)c1N`, the figures for the T inh in data set [6] and in data set [9] were 3500 s and 105 s, respectively. In the data set filed under Bos taurus [7], this compound yielded an IC50 of 300 nM. The RC10 in data set [8] worked out at 6.4 µM.

`CCCCCCCCCCCCn1c(=O)cc(N)[nH]c1=O` came in with an inhibition in the data set listed under Bos taurus [2] of 1%.

Take `CCCCCCCCCCn1c(=O)[nH]c(=O)c2[nH]c(O)nc21`: the logP in data set [5] turned out to be 2.04. The 50% inhibitory concentration (IC50) in the data set filed under Bos taurus [7] was found to be 3700 nM; in data set [10], 22000 nM. The RC10 in data set [8] turned out to be 3.5 µM. This compound also displayed an inhibition in data set [11] of 8%.

Consider `CCCCCCCCCCCCn1c(O)nc2c(=O)[nH]c(=O)[nH]c21`, for which the values for the IC50 (in the data set filed under Bos taurus [7]; in [10]) were 1000 nM and 11000 nM, respectively. Also, the RC10 in data set [8] worked out at 6.2 µM. Further, in data set [11], the inhibition was found to be 13%.

For the compound `Oc1nc(O)c2nc(O)[nH]c2n1`, the inhibition in the data set filed under Bos taurus [2] stood at 5%; in data set [11] it was 7%; in [13] it was 0.5%. In addition, in [8], the RC10 was 4.5 µM.

For `CCCCCCCCCCCCn1c(N)c(N)c(=O)n(C)c1=O`, the T inh was determined as 3150 s in [6] and 126 s in data set [9]. This compound also gave an IC50 in the data set filed under Bos taurus [7] of 240 nM. Moreover, the RC10 in [8] amounted to 5 µM.

Regarding `CCCCCCCCCCCCn1c(=O)[nH]c(N)c(N)c1=O`, the T inh in data set [6] is 4200 s; in [9], 144 s. The IC50 in the data set filed under Bos taurus [7] is 260 nM. In [8], the RC10 is 5.5 µM.

In turn, `Cn1c(=O)c2[nH]c(=O)[nH]c2n(C)c1=O` displayed an inhibition in the data set listed under Bos taurus [2] of 36%. Further, the RC10 in data set [8] was 3.5 µM.

As for `CCCCCCCCCCCCn1c(=O)n(C)c(=O)c2[nH]c(O)nc21`, the IC50 in the data set listed under Bos taurus [7] stood at 850 nM; in data set [10] it was 18000 nM. The compound further returned an RC10 in [8] of 3 µM. Besides, in [11], the inhibition amounted to 15%.

With `Cn1c(=O)[nH]c2c(=O)[nH]c(=O)[nH]c21`, the inhibition in the data set listed under Bos taurus [2] is 9%. Moreover, in data set [8], the RC10 was 5 µM.

Regarding `O=c1[nH]c(=O)c2[nH]c(=O)[nH]c2[nH]1` [URIC ACID], the logP in data set [5] is -2.91.

In data set [5], `CCCCCCCCCCCCn1c(=O)[nH]c(=O)c2[nH]c(O)nc21` displayed a logP of 2.9. The compound also showed an IC50 in the data set filed under Bos taurus [7] of 1600 nM. For the same compound, the RC10 in data set [8] is 3.2 µM.

`Cc1c(C)c2c(c(C)c1O)CCC(C)(C(=O)O)O2` (centres undefined) [TROLOX]: the T inh in data set [6] is 15000 s; in [9] it was 195 s. Also, 5000 nM corresponded to half-maximal inhibition in the data set listed under Bos taurus [7] (IC50). Moreover, the RC10 in [8] stood at 3.7 µM.

Consider `CCCCCCCCCCCCn1c(=O)n(C)c(=O)c2c1n(C)c(=O)n2C`, for which the inhibition in the data set filed under Bos taurus [2] was 5%; in data set [11], 0.7%; in data set [13] it was 0.5%. Also, in data set [3], the RC10 result was “inactive”.

In [5], `Nc1[nH]c(=O)[nH]c(=O)c1N` had a logP of -1.92. This compound displayed an IC50 in the data set listed under Bos taurus [7] of 100000 nM. The same compound returned an RC10 in [8] of 7 µM.

For the compound `CCCCCCCCCCCCn1c(O)nc2[nH]c(=O)[nH]c(=O)c21`, the IC50 in the data set filed under Bos taurus [7] stood at 1600 nM; in data set [10], 200000 nM. Besides, the RC10 in data set [8] was found to be 27 µM. Besides, in data set [11], the inhibition turned out to be 10%.

`Cn1c(=O)[nH]c2[nH]c(=O)[nH]c2c1=O`: the figures for the inhibition (in the data set listed under Bos taurus [2]; in data set [11]) were 10% and 13%, respectively. Further, in data set [8], the RC10 was 4.5 µM.

Take `Cn1c(O)nc2[nH]c(=O)[nH]c(=O)c21`: the inhibition in the data set filed under Bos taurus [2] is 20%. In data set [8], this compound came in with an RC10 of 20 µM.

Consider `Cn1c(N)c(N)c(=O)[nH]c1=O`, for which, in data set [5], the logP was -1.4. Also, the T inh turned out to be 800 s in [6] and 156 s in data set [9]. Also, in the data set listed under Bos taurus [7], the IC50 came to 82000 nM. Further, the RC10 in [8] came to 4.5 µM.

The compound `Cn1c(=O)[nH]c(N)c(N)c1=O` returned an IC50 in the data set listed under Bos taurus [7] of 50000 nM. The RC10 in data set [8] was 6 µM.

Turning to `CCCCCCn1c(=O)[nH]c(=O)c2[nH]c(O)nc21`, the inhibition in the data set listed under Bos taurus [2] was 26%. For the same compound, in data set [5], the logP is -0.02. The RC10 in data set [8] stood at 4.5 µM.

As for `Cn1c(=O)[nH]c(=O)c2c1[nH]c(=O)n2C`, the inhibition in the data set filed under Bos taurus [2] came out at 5%. Besides, the RC10 result in data set [3] is “inactive”.

As for `CCCCCCCCCCn1c(N)c(N)c(=O)[nH]c1=O`, the logP in data set [5] was found to be 3.04. In addition, the T inh in data set [6] was determined as 3700 s; in data set [9], 114 s. For the same compound, in the data set filed under Bos taurus [7], 280 nM corresponded to half-maximal inhibition (IC50). Moreover, the RC10 in data set [8] was determined as 5.6 µM.

Consider `CCCCCCCCCCCCCCCCCCNc1[nH]c(=O)n(C)c(=O)c1N`, for which the values for the T inh in data set [6] and in data set [9] were 1750 s and 114 s, respectively. In the data set filed under Bos taurus [7], this compound had an IC50 of 22000 nM. In addition, the RC10 in data set [8] is 6.2 µM.

In turn, `Cn1c(=O)[nH]c2[nH]c(=O)n(C)c2c1=O` returned an inhibition in the data set listed under Bos taurus [2] of 14%. In addition, the RC10 in data set [8] stood at 14 µM.

Turning to `CCCCCCCCCCCCNc1c(N)n(Cc2ccccc2)c(=O)[nH]c1=O`, the IC50 in the data set listed under Bos taurus [7] was 670 nM. In [8], the RC10 was determined as 6.5 µM.

Consider `CCCCCCCCCCCCCCCCn1c(O)nc2c(=O)[nH]c(=O)[nH]c21`, for which the values for the IC50 (in the data set filed under Bos taurus [7]; in data set [10]) were 750 nM and 8000 nM, respectively. Also, the RC10 in data set [8] is 4.5 µM. In addition, the inhibition in data set [11] came out at 10%.

In turn, `CCCCCCCCn1c(=O)[nH]c(=O)c2[nH]c(O)nc21` showed a logP in data set [5] of 1.1. In addition, the values for the IC50 (in the data set filed under Bos taurus [7]; in data set [10]) were 28000 nM and 37000 nM, respectively. For the same compound, the RC10 in data set [8] stood at 6.5 µM. In data set [11], the inhibition is 15%.

Turning to `CCCCCCCCCCCCCCCCNc1nc(O)nc(O)c1N`, the T inh in [6] came to 2020 s; in data set [9] it was 150 s. In the data set filed under Bos taurus [7], this compound came in with an IC50 of 900 nM. Besides, the RC10 in data set [8] came to 6.4 µM.

`CCCCCCCCCCCCNc1c(N)nc(O)nc1O`: the T inh was found to be 6000 s in [6] and 84 s in data set [9]. Moreover, in the data set filed under Bos taurus [7], inhibition was half-maximal at 570 nM (IC50). The compound further had an RC10 in [8] of 4.5 µM.

With `Cn1c(=O)[nH]c(=O)c2[nH]c(O)nc21`, the inhibition worked out at 11% in the data set filed under Bos taurus [2] and 10% in [11]. In data set [8], this compound returned an RC10 of 3.5 µM.

Consider `CCCCCCCCCCCCn1c(N)c(N)c(=O)[nH]c1=O`, for which the T inh stood at 3350 s in data set [6] and 102 s in [9]. In the data set listed under Bos taurus [7], this compound came in with an IC50 of 270 nM. Besides, the RC10 in data set [8] amounted to 7 µM.

`Cc1c(C)c2c(c(C)c1O)CC[C@@](C)(CCC[C@H](C)CCC[C@H](C)CCCC(C)C)O2`: in [1], the T inh result is “inactive”. The compound also registered an inhibition in the data set listed under Bos taurus [2] of 46%. The compound further yielded an RC10 in data set [8] of 6 µM. Besides, in data set [9], the T inh worked out at 190 s.
